Measurements reported in patent publication US9862748B2, “Peptide compounds and methods of production and use thereof” (priority 2012, dated 2018).
Like-named read-outs stand apart in the source and are kept apart here. Square brackets hold non-standard residues; d marks the D form. Peptide text beside a SMILES is read from it. AEEA = NCCOCCOCC(=O)O

Experiments:
Pseudomonas LPS = assay: LPS binding, Limulus Amebocyte Lysate (LAL) assay
Description: (§1) The well-characterized response of RAW264.7 macrophage cells was used to produce tumor necrosis-factor-alpha (TNF-α) in response to LPS to determine whether the peptides could dampen the release of this cytokine. […] Importantly, pre-treatment (3 hours prior to LPS addition) as well as post-treatment of the RAW264.7 cells (3 hours post LPS addition) with peptide dampened the cytokine release. […] The finding that the novel peptides bind and neutralize the effect of Pseudomonas LPS is of critical importance since this ensures that the novel therapeutic peptide compounds described herein will not only kill the bacteria, but will also neutralize the LPS endotoxin released by the bacteria which plays such an important role in the rapid progression of sepsis.
(§2) BCC01-5RMP (SEQ ID NO: 21), BCC02-5RMP (SEQ ID NO: 22), and BCC03-5RMP (SEQ ID NO: 23) were tested for their ability to bind lipopolysaccharide (LPS) using the limulus amebocyte lysate method (LAL). […] There was no statistical difference in their ability to bind LPS using the LAL technique. The ability of the peptides to neutralize LPS was assessed by determining their ability to attenuate the release of tumor necrosis factor-alpha (TNF-α) from LPS-stimulated RAW264.7 cells (a mouse macrophage cell line). […] No significant differences were observed between the three peptides to neutralize LPS as measured by cytokine release.

[1] = tested on: E. coli ATCC® strain 25922™; format: cell-based, Escherichia coli; set-up: unit not given here; details: Peptide Conc 1.56 μg/ml; Table 6
Description: (§3) In vitro bactericidal activity: The three peptide compounds BCC01-5RMP (SEQ ID NO: 21), BCC02-5RMP (SEQ ID NO: 22), and BCC03-5RMP (SEQ ID NO: 23) were assayed for in vitro bactericidal activity against Pseudomonas aeruginosa, Escherichia coli, Salmonella typhimurium, and Acinetobacter baumannii. The starting inoculum for all experiments was 1×10^6 colony forming units (CFU)/ml. The CFU remaining at the end of 60 to 180 minute incubation was determined, and the data plotted as a log reduction in CFU/ml.

[2] = tested on: Pseudomonas aeruginosa ATCC® 27853™; format: cell-based; set-up: Effects of Peptide Compounds on Pseudomonas aeruginosa ATCC ® 27853 ™: unit not given here; details: Table 6
Description: as §3
For FIGS. 10-13, in vitro bactericidal assays were performed using a starting inoculum of 1×10^6 CFU/ml of the bacterial suspension. The CFU remaining at the end of the 60-180 minute incubation was determined, and the data was plotted as log reduction in CFU/ml.
In particular, each of the test peptides (CAP37 peptides 120-146WR, 120-146WH, and 95-122 (SEQ ID NOs: 30, 31, and 26, respectively)) was used at 25, 12.5, 6.25, and 3.12 μM. Gentamicin was used at 4 μg/ml. 1×10^6/ml Acinetobacter baumannii ATCC® BAA-747™ or Pseudomonas aeruginosa ATCC® 27853™ (American Type Culture Collection, Manassas, Va.) were incubated with the peptides, negative buffer control (tryptone saline), and positive control gentamicin at pH 5.5 or 7.2. A 60 minute incubation was used for Acinetobacter baumannii ATCC® BAA-747™, while a 180 minute incubation was used for Pseudomonas aeruginosa ATCC® 27853™. 50 μl aliquots were plated out on agar plates and incubated overnight. Colony forming units were counted after overnight incubation and CFU/ml calculated.
For FIG. 14, 1×10^6/ml Pseudomonas aeruginosa ATCC® 27853™ were incubated with each of the test peptides (CAP37 peptides 120-146WR, 120-146WH, 120-146QR, 120-146QH, 120-146QR-5RMP, and 120-146QH-5RMP (SEQ ID NOs: 30, 31, 28, 29, 32, and 33, respectively)) at 150, 75, and 37.5 μg/ml, or negative buffer control (tryptone saline), for 180 minutes at pH 5.5. 50 μl aliquots were plated out on agar plates and incubated overnight. Colony forming units were counted after overnight incubation and CFU/ml calculated.

RAW264.7 cells = assay: LPS neutralization: TNF-α release from LPS-stimulated RAW264.7 cells; format: cell-based, mouse
Description: as §1, §2

[3] = tested on: Acinetobacter baumannii ATCC® BAA-747™; format: cell-based; details: starting inoculum 1×10^6 CFU/ml; 60 to 180 minute incubation
Method in brief: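 Peptides at 25, 12.5, 6.25 and 3.12 μM were incubated with 1×10^6 CFU/ml bacteria at pH 5.5 or 7.2, with tryptone saline as negative control and gentamicin (4 μg/ml) as positive control. Incubation was 60 min for A. baumannii and 180 min for P. aeruginosa. Surviving CFU counted after overnight plating, expressed as log reduction in CFU/ml.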

Salmonella typhimurium = assay: In vitro bactericidal assay; format: cell-based
Description: as §3

[4] = tested on: P. aeruginosa (ATCC® 27853™); assay: Mouse model of Pseudomonas keratitis (CFU/eye); format: in vivo, Pseudomonas aeruginosa in C57/BL mice; details: 10 and 20 mg/ml groups together
Description: A circular wound (2 mm) was created on the mouse cornea by removing the epithelium and infecting the wound with 10^5 CFU of P. aeruginosa (ATCC® 27853™ (American Type Culture Collection, Manassas, Va.)). Infected wounds were treated with saline or saline containing indicated concentrations of peptide every 15 minutes for 2 hours, then every 30 minutes for 3 hours on the first day. Infected wounds were treated twice on the second day and once on the third day. Mice were killed at 48 hours post-infection, and the colony forming units per eye (CFU/eye) were quantified. The means are plotted and are representative of 5 to 9 mice per group. Mann Whitney test was performed for each group as compared to the saline control group.
For FIGS. 15-17, in vivo bactericidal activity of the peptides was also investigated using the standard Pseudomonas keratitis model in the mouse eye (FIGS. 15-17). Peptides 120-146QR-5RMP (SEQ ID NO: 32), 120-146WH (SEQ ID NO: 31), and 120-146WR (SEQ ID NO: 30) were applied topically at doses of 2, 5, 10, and 20 mg/ml to the wounded cornea that had been infected with 10^5 CFU of Pseudomonas aeruginosa. The efficacies of the peptides were compared to treatment with the vehicle control. Mice were euthanized at 48 hours post infection, and the CFU/eye were quantified.

**Q.** Which “binding of Pseudomonas LPS (LAL)” value (Pseudomonas LPS) does the source give for `CC[C@H](C)[C@H](NC(=O)[C@H](CC(C)C)NC(=O)[C@H](C)NC(=O)CNC(=O)CNC(=O)[C@H](CS)NC(=O)[C@H](Cc1ccccc1)NC(=O)[C@H](Cc1c[nH]cn1)NC(=O)[C@H](CCCNC(=N)N)NC(=O)CNC(=O)[C@H](CCC(N)=O)NC(=O)[C@H](CC(N)=O)NC(=O)[C@H](CCCNC(=N)N)NC(=O)[C@H](CCCNC(=N)N)NC(=O)[C@H](CCCNC(=N)N)NC(=O)[C@H](CCCNC(=N)N)NC(=O)COCCOCCNC(=O)COCCOCCN)C(=O)N[C@@H](Cc1c[nH]cn1)C(=O)N[C@@H](C)C(=O)N[C@@H](CCCNC(=N)N)C(=O)N[C@@H](Cc1ccccc1)C(=O)N[C@H](C(=O)N[C@@H](CCSC)C(=O)N[C@H](C(=O)N[C@@H](C)C(=O)N[C@@H](C)C(=O)N[C@@H](CO)C(=O)N[C@@H](CO)C(=O)N[C@@H](Cc1ccccc1)C(=O)N[C@@H](CCC(N)=O)C(=O)N[C@@H](CCCNC(=N)N)C(=O)O)[C@@H](C)O)C(C)C` [BCC03-5RMP] (H-[AEEA][AEEA]RRRRNQGRHFCGGALIHARFVMTAASSFQR-OH; N-terminus assumed) here?
**A.** bound Pseudomonas LPS

**Q.** And the “Effects of Peptide Compounds on Escherichia coli ATCC ® 25922 ™” value [1]?
**A.** 23.0

**Q.** What about the “Effects of Peptide Compounds on Pseudomonas aeruginosa ATCC ® 27853 ™” value ([2]; Peptide Conc 25 μg/ml) of the same compound?
**A.** 100.0

**Q.** And the “Effects of Peptide Compounds on Pseudomonas aeruginosa ATCC ® 27853 ™” value ([2]; Peptide Conc 50 μg/ml)?
**A.** 100.0

**Q.** What about the “Effects of Peptide Compounds on Pseudomonas aeruginosa ATCC ® 27853 ™” value ([2]; Peptide Conc 100 μg/ml) of the same compound?
**A.** 100.0

**Q.** What about the “Effects of Peptide Compounds on Pseudomonas aeruginosa ATCC ® 27853 ™” value ([2]; Peptide Conc 200 μg/ml) of the same compound?
**A.** 100.0

**Q.** What about the “release of TNF-α in response to Pseudomonas LPS” value (RAW264.7 cells) of the same compound?
**A.** attenuate the release of TNF-α

**Q.** And the “activity against Acinetobacter baumannii” value [3]?
**A.** most active

**Q.** What about the “activity against Salmonella typhimurium” value (Salmonella typhimurium) of the same compound?
**A.** strong, but lesser activity

**Q.** With `CC(C)C[C@H](NC(=O)[C@H](CCCNC(=N)N)NC(=O)CNC(=O)CNC(=O)[C@H](CO)NC(=O)[C@H](CCCNC(=N)N)NC(=O)[C@H](CCC(N)=O)NC(=O)[C@H](CO)NC(=O)CNC(=O)[C@H](Cc1c[nH]c2ccccc12)NC(=O)CNC(=O)[C@H](C)NC(=O)[C@@H](NC(=O)[C@H](CCC(N)=O)NC(=O)[C@H](CS)NC(=O)[C@H](CCCNC(=N)N)NC(=O)[C@@H](NC(=O)CNC(=O)[C@H](CCCNC(=N)N)NC(=O)[C@H](CCCNC(=N)N)NC(=O)[C@H](CCCNC(=N)N)NC(=O)[C@H](CCCNC(=N)N)NC(=O)COCCOCCNC(=O)COCCOCCN)[C@@H](C)O)C(C)C)C(=O)N[C@@H](CO)C(=O)N[C@@H](CCCNC(=N)N)C(=O)N[C@@H](Cc1ccccc1)C(=O)N1CCC[C@H]1C(=O)N[C@@H](CCCNC(=N)N)C(=O)N[C@@H](Cc1ccccc1)C(=O)N[C@H](C(=O)N[C@@H](CC(N)=O)C(=O)N[C@H](C(=O)N[C@@H](CCCNC(=N)N)C(=O)O)C(C)C)C(C)C` [120-146QR-5RMP] (H-[AEEA][AEEA]RRRRGTRCQVAGWGSQRSGGRLSRFPRFVNVR-OH; N-terminus and C-terminus assumed) as the compound, how does the “mice with no viable bacteria in the eye after treatment” value [4] read?
**A.** Six of the 10 mice
